# Laboratory results reported in patent US5162328A, “N-[3-[2-(1H-imidazol-1-yl)ethoxy]phenyl]-4-(2-thienyl)-2-pyrimidinamine and pharmacologically acceptable salts” (American Cyanamid Company, priority 1991, dated 1992).
# Where two headings read alike, the source gives them in different places.
# Test: Pharmacokinetics in dogs (plasma concentration by HPLC)
# Format: in vivo, dog (beagle)
# Conditions: dog; for concentration at 0.5 h / concentration at 1 h / concentration at 2 h / concentration at 4 h / concentration at 7 h / concentration at 12 h / AUC(0-t) / Cmax / Tmax / half-life / AUC(0-inf): plasma, po, 2 mg/kg/day, 2 mg/kg/day PO; for AUC(0-inf): read-out: AUCO- (to infinite time)
# Protocol: Since dogs are used in toxicology studies of antiasthma compounds, this species is chosen for pharmacokinetic evaluations. Use of the dog permits the pharmacokinetic comparison of 2 or more compounds in the same test animal, an evaluation which could not be conveniently performed in a smaller species. For each test compound, normal dogs are given a dose of 2.0 mg/kg/day for 5 consecutive days. There is a washout period of 1 month between the study of each of the test compounds in the same four dogs. Each test compound is administered as a solution of 5 mg/ml in either 0.05 or 0.1N HCl which is dispensed into a gelatin capsule immediately prior to dosage.
# Heparinized blood samples are obtained from each animal on the first, third and fifth day of dosage at 0.5, 1.0, 2.0, 4.0, 7.0, 12.0 and 24.0 hours after the dose. The samples are centrifuged immediately to obtain plasma which is frozen until analyzed.
# Analysis of plasma is performed using High Performance Liquid Chromatography (HPLC). The analytical procedure is essentially identical for each compound. The internal standard used for N-[3-[2-(1H-imidazol-1-yl)ethoxy]phenyl]-4-(2-thienyl)2-pyrimidinamine is 2-chloro-11-(4-methyl-1-piperazinyl)dibenz[b,f][1,4]oxazepine succinate, while for 2-methyl-N^4 -[4-(4-pyridinyl)-2-pyrimidinyl]-1,4-benzenediamine dihydrochloride and N-[4-[2-(diethylamino)ethoxy]phenyl]-4-(4-pyridinyl)-2-pyrimidnamine dihydrochloride the internal standard is 7-ethoxy-coumarin. In a typical procedure, a 0.4 ml volume of acetonitrile containing internal standard is added a 0.2 ml volume of serum. The sample is mixed by vortexing and centrifuged. The clear protein free supernatent fluid is decanted into a clean tube and evaporated to dryness. The dry residue is dissolved in 0.2 ml of HPLC mobile phase and 50 ul of this solution injected. Peaks corresponding to the test compound being measured and to the internal standard compound are quantitated by their absorption of ultraviolet light at 280 nm. Each set of analytical samples is accompanied by the analysis of a group of standard dog plasma samples prepared to contain amounts of the compound being measured which encompasses the concentration range of the samples.
# Four normal beagle dogs weighing between 9.2 and 10.2 Kg are used in the study.
compound,measurement,setting,value
c1cc(Nc2nccc(-c3cccs3)n2)cc(OCCn2ccnc2)c1 [N-[3-[2-(1H-imidazol-1-yl)ethoxy]phenyl]-4-(2-thienyl)-2-pyrimidinamine],concentration in plasma over a 12 hour period (in words),"after first dose, FIG. 4",at a higher level for a longer period than the other test compounds
same,concentration at 0.5 h,"Dog 1, day 1, 0.5 h",483 ng/mL
same,concentration at 1 h,"Dog 1, day 1, 1 h",595 ng/mL
same,concentration at 2 h,"Dog 1, day 1, 2 h",392 ng/mL
same,concentration at 4 h,"Dog 1, day 1, 4 h",281 ng/mL
same,concentration at 7 h,"Dog 1, day 1, 7 h",122 ng/mL
same,concentration at 12 h,"Dog 1, day 1, 12 h",< 30 ng/mL
same,AUC(0-t),"Dog 1, day 1",2160 ng·h/mL
same,Cmax,"Dog 1, day 1",595 ng/mL
same,Tmax,"Dog 1, day 1",1 h
same,half-life,"Dog 1, day 1",2.75 h
same,AUC(0-inf),"Dog 1, day 1",2480 ng·h/mL
same,concentration at 0.5 h,"Dog 1, day 3, 0.5 h",< 30 ng/mL
same,concentration at 1 h,"Dog 1, day 3, 1 h",125 ng/mL
same,concentration at 2 h,"Dog 1, day 3, 2 h",98 ng/mL
same,concentration at 4 h,"Dog 1, day 3, 4 h",< 30 ng/mL
same,concentration at 7 h,"Dog 1, day 3, 7 h",< 30 ng/mL
same,concentration at 12 h,"Dog 1, day 3, 12 h",< 30 ng/mL
same,AUC(0-t),"Dog 1, day 3",143 ng·h/mL
same,Cmax,"Dog 1, day 3",125 ng/mL
same,Tmax,"Dog 1, day 3",1 h
same,AUC(0-inf),"Dog 1, day 3",398 ng·h/mL
same,concentration at 0.5 h,"Dog 1, day 5, 0.5 h",339 ng/mL
same,concentration at 1 h,"Dog 1, day 5, 1 h",418 ng/mL
same,concentration at 2 h,"Dog 1, day 5, 2 h",267 ng/mL
same,concentration at 4 h,"Dog 1, day 5, 4 h",112 ng/mL
same,concentration at 7 h,"Dog 1, day 5, 7 h",< 30 ng/mL
same,concentration at 12 h,"Dog 1, day 5, 12 h",< 30 ng/mL
same,AUC(0-t),"Dog 1, day 5",996 ng·h/mL
same,Cmax,"Dog 1, day 5",418 ng/mL
same,Tmax,"Dog 1, day 5",1 h
same,half-life,"Dog 1, day 5",1.58 h
same,AUC(0-inf),"Dog 1, day 5",1290 ng·h/mL
same,concentration at 0.5 h,"Dog 2, day 1, 0.5 h",185 ng/mL
same,concentration at 1 h,"Dog 2, day 1, 1 h",334 ng/mL
same,concentration at 2 h,"Dog 2, day 1, 2 h",251 ng/mL
same,concentration at 4 h,"Dog 2, day 1, 4 h",161 ng/mL
same,concentration at 7 h,"Dog 2, day 1, 7 h",< 30 ng/mL
same,concentration at 12 h,"Dog 2, day 1, 12 h",< 30 ng/mL
same,AUC(0-t),"Dog 2, day 1",881 ng·h/mL
same,Cmax,"Dog 2, day 1",334 ng/mL
same,Tmax,"Dog 2, day 1",1 h
same,half-life,"Dog 2, day 1",2.88 h
same,AUC(0-inf),"Dog 2, day 1",1300 ng·h/mL
same,concentration at 0.5 h,"Dog 2, day 3, 0.5 h",< 30 ng/mL
same,concentration at 1 h,"Dog 2, day 3, 1 h",205 ng/mL
same,concentration at 2 h,"Dog 2, day 3, 2 h",129 ng/mL
same,concentration at 4 h,"Dog 2, day 3, 4 h",36 ng/mL
same,concentration at 7 h,"Dog 2, day 3, 7 h",< 30 ng/mL
same,concentration at 12 h,"Dog 2, day 3, 12 h",< 30 ng/mL
same,AUC(0-t),"Dog 2, day 3",383 ng·h/mL
same,Cmax,"Dog 2, day 3",205 ng/mL
same,Tmax,"Dog 2, day 3",1 h
same,half-life,"Dog 2, day 3",1.18 h
same,AUC(0-inf),"Dog 2, day 3",477 ng·h/mL
same,concentration at 0.5 h,"Dog 2, day 5, 0.5 h",54 ng/mL
same,concentration at 1 h,"Dog 2, day 5, 1 h",222 ng/mL
same,concentration at 2 h,"Dog 2, day 5, 2 h",149 ng/mL
same,concentration at 4 h,"Dog 2, day 5, 4 h",30 ng/mL
same,concentration at 7 h,"Dog 2, day 5, 7 h",< 30 ng/mL
same,concentration at 12 h,"Dog 2, day 5, 12 h",< 30 ng/mL
same,AUC(0-t),"Dog 2, day 5",447 ng·h/mL
same,Cmax,"Dog 2, day 5",222 ng/mL
same,Tmax,"Dog 2, day 5",1 h
same,half-life,"Dog 2, day 5",0.99 h
same,AUC(0-inf),"Dog 2, day 5",525 ng·h/mL
same,concentration at 0.5 h,"Dog 3, day 1, 0.5 h",97 ng/mL
same,concentration at 1 h,"Dog 3, day 1, 1 h",325 ng/mL
same,concentration at 2 h,"Dog 3, day 1, 2 h",303 ng/mL
same,concentration at 4 h,"Dog 3, day 1, 4 h",138 ng/mL
same,concentration at 7 h,"Dog 3, day 1, 7 h",45 ng/mL
same,concentration at 12 h,"Dog 3, day 1, 12 h",< 30 ng/mL
same,AUC(0-t),"Dog 3, day 1",1160 ng·h/mL
same,Cmax,"Dog 3, day 1",325 ng/mL
same,Tmax,"Dog 3, day 1",1 h
same,half-life,"Dog 3, day 1",1.82 h
same,AUC(0-inf),"Dog 3, day 1",1280 ng·h/mL
same,concentration at 0.5 h,"Dog 3, day 3, 0.5 h",292 ng/mL
same,concentration at 1 h,"Dog 3, day 3, 1 h",350 ng/mL
same,concentration at 2 h,"Dog 3, day 3, 2 h",220 ng/mL
same,concentration at 4 h,"Dog 3, day 3, 4 h",60 ng/mL
same,concentration at 7 h,"Dog 3, day 3, 7 h",< 30 ng/mL
same,concentration at 12 h,"Dog 3, day 3, 12 h",< 30 ng/mL
